In patent US20240158446A1, “CYCLIC COMPOUND HAVING SELECTIVE INHIBITORY ACTION ON KRAS OVER HRAS AND NRAS” (CHUGAI SEIYAKU KABUSHIKI KAISHA, priority 2021, published 2024):
pKd: −log10 of the molar value.

Tests used:
[1] = target: GDP-bound KRAS wild-type protein (Homo sapiens, UniProt P01116); assay: Binding to KRAS by surface plasmon resonance (SPR), Single Cycle Kinetics; conditions: SPR, Single Cycle Kinetics, GDP-bound KRAS wild-type protein; read-out: KRAS KD
[2] = target: GDP-bound NRAS wild-type protein (Homo sapiens, UniProt P01111); assay: Binding to NRAS by surface plasmon resonance (SPR), Single Cycle Kinetics; conditions: SPR, GDP-bound NRAS wild-type protein vs GDP-bound KRAS wild-type protein
GDP-bound NRAS wild-type protein, sequence (P01111 whole entry): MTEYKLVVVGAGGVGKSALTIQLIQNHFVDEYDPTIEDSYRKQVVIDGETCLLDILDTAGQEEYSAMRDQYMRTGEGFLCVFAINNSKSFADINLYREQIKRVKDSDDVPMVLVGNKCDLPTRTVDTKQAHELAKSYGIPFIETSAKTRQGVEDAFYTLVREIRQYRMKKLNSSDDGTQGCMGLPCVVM

[3] = target: GDP-bound HRAS wild-type protein (Homo sapiens, UniProt P01112); assay: Binding to HRAS by surface plasmon resonance (SPR), Single Cycle Kinetics; conditions: SPR, GDP-bound HRAS wild-type protein vs GDP-bound KRAS wild-type protein
GDP-bound HRAS wild-type protein, sequence (P01112 whole entry): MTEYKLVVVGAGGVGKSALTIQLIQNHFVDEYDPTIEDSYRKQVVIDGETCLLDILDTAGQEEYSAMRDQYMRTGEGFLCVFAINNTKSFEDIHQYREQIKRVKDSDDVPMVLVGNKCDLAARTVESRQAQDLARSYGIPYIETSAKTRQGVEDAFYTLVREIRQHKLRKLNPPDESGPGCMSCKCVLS

GDP-bound KRAS wild-type protein, sequence (P01116 whole entry): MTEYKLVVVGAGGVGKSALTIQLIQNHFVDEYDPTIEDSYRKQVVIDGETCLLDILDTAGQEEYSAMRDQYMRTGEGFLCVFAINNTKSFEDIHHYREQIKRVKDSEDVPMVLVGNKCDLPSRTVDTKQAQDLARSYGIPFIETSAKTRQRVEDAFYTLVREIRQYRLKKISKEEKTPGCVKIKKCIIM

In the case of CCO[C@@H]1C[C@H]2C(=O)NC3(CCC3)C(=O)N(C)[C@@H](C3CCCC3)C(=O)N(C)[C@H](C(=O)N(C)C)CC(=O)N(C)[C@@H](Cc3ccc(F)cc3)C(=O)N[C@@H]([C@@H](C)CC)C(=O)N(C)CC(=O)N(C)[C@H]3CCCCCN(C3=O)[C@@H](Cc3ccc(C(F)(F)F)cc3)C(=O)N(C)CC(=O)N[C@@H](CCc3cc(F)c(C(F)(F)F)c(F)c3)C(=O)N2C1 [PP0936], the pKd [1] was 9.38, the “NRAS/KRAS (ratio of KD value for NRAS to KD value for KRAS)” value [2] was “B (a compound having 3 or more and less than 10 is denoted as B)” and the “HRAS/KRAS (ratio of KD value for HRAS to KD value for KRAS)” value [3] was “B (a compound having 3 or more and less than 10 is denoted as B)”.

CCO[C@@H]1C[C@H]2C(=O)NC3(CCC3)C(=O)N(C)[C@@H](C3CCCC3)C(=O)N(C)[C@H](C(=O)N(C)C)CC(=O)N(C)[C@@H](Cc3cccc(Cl)c3)C(=O)N[C@@H]([C@@H](C)CC)C(=O)N(C)CC(=O)N(C)[C@H]3CCCCCN(C3=O)[C@@H](Cc3ccc(C(F)(F)F)cc3)C(=O)N(C)CC(=O)N[C@@H](CCc3cc(F)c(C(F)(F)F)c(F)c3)C(=O)N2C1 [PP0939] was tested, and the pKd [1] was 9.04, the “NRAS/KRAS (ratio of KD value for NRAS to KD value for KRAS)” value [2] was “B (a compound having 3 or more and less than 10 is denoted as B)” and the “HRAS/KRAS (ratio of KD value for HRAS to KD value for KRAS)” value [3] was “B (a compound having 3 or more and less than 10 is denoted as B)”.

CCO[C@@H]1C[C@H]2C(=O)NC3(CCC3)C(=O)N(C)[C@@H](C3CCCC3)C(=O)N(C)[C@H](C(=O)N(C)C)CC(=O)N(C)[C@@H](Cc3ccc(Cl)cc3)C(=O)N[C@@H]([C@@H](C)CC)C(=O)N(C)CC(=O)N(C)[C@H]3CCCCCN(C3=O)[C@@H](Cc3ccc(C(F)(F)F)cc3)C(=O)N(C)CC(=O)N[C@@H](CCc3cc(F)c(C(F)(F)F)c(F)c3)C(=O)N2C1 [PP0940] was tested, and the pKd [1] was 8.70, the “NRAS/KRAS (ratio of KD value for NRAS to KD value for KRAS)” value [2] was “B (a compound having 3 or more and less than 10 is denoted as B)” and the “HRAS/KRAS (ratio of KD value for HRAS to KD value for KRAS)” value [3] was “C (A compound having a KD ratio of 0.1 or more and less than 3 is denoted as C)”.

In the case of CCO[C@@H]1C[C@H]2C(=O)NC3(CCC3)C(=O)N(C)[C@@H](C3CCCC3)C(=O)N(C)[C@H](C(=O)N(C)C)CC(=O)N(C)[C@@H](Cc3cccc(C)c3)C(=O)N[C@@H]([C@@H](C)CC)C(=O)N(C)CC(=O)N(C)[C@H]3CCCCCN(C3=O)[C@@H](Cc3ccc(C(F)(F)F)cc3)C(=O)N(C)CC(=O)N[C@@H](CCc3cc(F)c(C(F)(F)F)c(F)c3)C(=O)N2C1 [PP0942], the pKd [1] was 9.00, the “NRAS/KRAS (ratio of KD value for NRAS to KD value for KRAS)” value [2] was “B (a compound having 3 or more and less than 10 is denoted as B)” and the “HRAS/KRAS (ratio of KD value for HRAS to KD value for KRAS)” value [3] was “B (a compound having 3 or more and less than 10 is denoted as B)”.

CCO[C@@H]1C[C@H]2C(=O)NC3(CCC3)C(=O)N(C)[C@@H](C3CCCC3)C(=O)N(C)[C@H](C(=O)N(C)C)CC(=O)N(C)[C@@H](Cc3ccc(C)cc3)C(=O)N[C@@H]([C@@H](C)CC)C(=O)N(C)CC(=O)N(C)[C@H]3CCCCCN(C3=O)[C@@H](Cc3ccc(C(F)(F)F)cc3)C(=O)N(C)CC(=O)N[C@@H](CCc3cc(F)c(C(F)(F)F)c(F)c3)C(=O)N2C1 [PP0943] was tested, and the pKd [1] was 8.96, the “NRAS/KRAS (ratio of KD value for NRAS to KD value for KRAS)” value [2] was “B (a compound having 3 or more and less than 10 is denoted as B)” and the “HRAS/KRAS (ratio of KD value for HRAS to KD value for KRAS)” value [3] was “B (a compound having 3 or more and less than 10 is denoted as B)”.

CCO[C@@H]1C[C@H]2C(=O)NC3(CCC3)C(=O)N(C)[C@@H](C3CCCC3)C(=O)N(CC)[C@H](C(=O)N3CCOCC3)CC(=O)N(C)[C@@H](CC)C(=O)N[C@@H]([C@@H](C)CC)C(=O)N(C)CC(=O)N(C)[C@H]3CCCCCN(C3=O)[C@@H](Cc3ccc(C(F)(F)F)cc3)C(=O)N(C)CC(=O)N[C@@H](CCc3cc(F)c(C(F)(F)F)c(F)c3)C(=O)N2C1 [PP0944] was tested, and the pKd [1] was 8.41, the “NRAS/KRAS (ratio of KD value for NRAS to KD value for KRAS)” value [2] was “A (a compound having 10 or more and less than 20 is denoted as A)” and the “HRAS/KRAS (ratio of KD value for HRAS to KD value for KRAS)” value [3] was “A (a compound having 10 or more and less than 20 is denoted as A)”.

In the case of CCO[C@@H]1C[C@H]2C(=O)NC3(CCC3)C(=O)N(C)[C@@H](C3CCCC3)C(=O)N(CC)[C@H](C(=O)N3CCOCC3)CC(=O)N(C)[C@@H](CO)C(=O)N[C@@H]([C@@H](C)CC)C(=O)N(C)CC(=O)N(C)[C@H]3CCCCCN(C3=O)[C@@H](Cc3ccc(C(F)(F)F)cc3)C(=O)N(C)CC(=O)N[C@@H](CCc3cc(F)c(C(F)(F)F)c(F)c3)C(=O)N2C1 [PP0945], the pKd [1] was 8.43, the “NRAS/KRAS (ratio of KD value for NRAS to KD value for KRAS)” value [2] was “B (a compound having 3 or more and less than 10 is denoted as B)” and the “HRAS/KRAS (ratio of KD value for HRAS to KD value for KRAS)” value [3] was “A (a compound having 10 or more and less than 20 is denoted as A)”.

In the case of CCO[C@@H]1C[C@H]2C(=O)NC3(CCC3)C(=O)N(C)[C@@H](C3CCCC3)C(=O)N(CC)[C@H](C(=O)N3CCOCC3)CC(=O)N(C)[C@@H](COC)C(=O)N[C@@H]([C@@H](C)CC)C(=O)N(C)CC(=O)N(C)[C@H]3CCCCCN(C3=O)[C@@H](Cc3ccc(C(F)(F)F)cc3)C(=O)N(C)CC(=O)N[C@@H](CCc3cc(F)c(C(F)(F)F)c(F)c3)C(=O)N2C1 [PP0946], the pKd [1] was 8.66, the “NRAS/KRAS (ratio of KD value for NRAS to KD value for KRAS)” value [2] was “A (a compound having 10 or more and less than 20 is denoted as A)” and the “HRAS/KRAS (ratio of KD value for HRAS to KD value for KRAS)” value [3] was “B (a compound having 3 or more and less than 10 is denoted as B)”.

CCO[C@@H]1C[C@H]2C(=O)NC3(CCC3)C(=O)N(C)[C@@H](C3CCCC3)C(=O)N(CC)[C@H](C(=O)N3CCOCC3)CC(=O)N(C)[C@@H](CCOC)C(=O)N[C@@H]([C@@H](C)CC)C(=O)N(C)CC(=O)N(C)[C@H]3CCCCCN(C3=O)[C@@H](Cc3ccc(C(F)(F)F)cc3)C(=O)N(C)CC(=O)N[C@@H](CCc3cc(F)c(C(F)(F)F)c(F)c3)C(=O)N2C1 [PP0947] was tested, and the pKd [1] was 8.47, the “NRAS/KRAS (ratio of KD value for NRAS to KD value for KRAS)” value [2] was “A (a compound having 10 or more and less than 20 is denoted as A)” and the “HRAS/KRAS (ratio of KD value for HRAS to KD value for KRAS)” value [3] was “A (a compound having 10 or more and less than 20 is denoted as A)”.

CCO[C@@H]1C[C@H]2C(=O)NC3(CCC3)C(=O)N(C)[C@@H](C3CCCC3)C(=O)N(CC)[C@H](C(=O)N3CCOCC3)CC(=O)N(C)[C@@H](Cc3ccccc3)C(=O)N[C@@H]([C@@H](C)CC)C(=O)N(C)CC(=O)N(C)[C@H]3CCCCCN(C3=O)[C@@H](Cc3ccc(C(F)(F)F)cc3)C(=O)N(C)CC(=O)N[C@@H](CCc3cc(F)c(C(F)(F)F)c(F)c3)C(=O)N2C1 [PP0950] was tested, and the pKd [1] was 8.22, the “NRAS/KRAS (ratio of KD value for NRAS to KD value for KRAS)” value [2] was “A (a compound having 10 or more and less than 20 is denoted as A)” and the “HRAS/KRAS (ratio of KD value for HRAS to KD value for KRAS)” value [3] was “B (a compound having 3 or more and less than 10 is denoted as B)”.

With CCO[C@@H]1C[C@H]2C(=O)NC3(CCC3)C(=O)N(C)[C@@H](C3CCCC3)C(=O)N(CC)[C@H](C(=O)N3CCOCC3)CC(=O)N(C)[C@@H](CCc3ccccc3)C(=O)N[C@@H]([C@@H](C)CC)C(=O)N(C)CC(=O)N(C)[C@H]3CCCCCN(C3=O)[C@@H](Cc3ccc(C(F)(F)F)cc3)C(=O)N(C)CC(=O)N[C@@H](CCc3cc(F)c(C(F)(F)F)c(F)c3)C(=O)N2C1 [PP0953] the pKd [1] was 7.57, the “NRAS/KRAS (ratio of KD value for NRAS to KD value for KRAS)” value [2] was “A (a compound having 10 or more and less than 20 is denoted as A)” and the “HRAS/KRAS (ratio of KD value for HRAS to KD value for KRAS)” value [3] was “A (a compound having 10 or more and less than 20 is denoted as A)”.

For CC[C@H](C)[C@@H]1NC(=O)[C@H](CC(C)C)N(C)C(=O)C[C@@H](C(=O)N2CCOCC2)N(CC)C(=O)[C@H](C2CCCC2)N(C)C(=O)C2(CCC2)NC(=O)[C@@H]2[C@H](O)CCN2C(=O)[C@H](CCc2cc(F)c(C(F)(F)F)c(F)c2)NC(=O)CN(C)C(=O)[C@H](Cc2ccc(C(F)(F)F)cc2)N2CCCCC[C@@H](C2=O)N(C)C(=O)CN(C)C1=O [PP0955], the pKd [1] was 7.72, the “NRAS/KRAS (ratio of KD value for NRAS to KD value for KRAS)” value [2] was “A (a compound having 10 or more and less than 20 is denoted as A)” and the “HRAS/KRAS (ratio of KD value for HRAS to KD value for KRAS)” value [3] was “A (a compound having 10 or more and less than 20 is denoted as A)”.

CCO[C@@H]1C[C@H]2C(=O)NC3(CC=CC3)C(=O)N(C)[C@@H](C3CCCC3)C(=O)N(CC)[C@H](C(=O)N3CCOCC3)CC(=O)N(C)[C@@H](CC(C)C)C(=O)N[C@@H]([C@@H](C)CC)C(=O)N(C)CC(=O)N(C)[C@H]3CCCCCN(C3=O)[C@@H](Cc3ccc(C(F)(F)F)cc3)C(=O)N(C)CC(=O)N[C@@H](CCc3cc(F)c(C(F)(F)F)c(F)c3)C(=O)N2C1 [PP0956] was tested, and the pKd [1] was 8.14, the “NRAS/KRAS (ratio of KD value for NRAS to KD value for KRAS)” value [2] was “A (a compound having 10 or more and less than 20 is denoted as A)” and the “HRAS/KRAS (ratio of KD value for HRAS to KD value for KRAS)” value [3] was “A (a compound having 10 or more and less than 20 is denoted as A)”.

In the case of CC[C@H](C)[C@@H]1NC(=O)[C@H](COC)N(C)C(=O)C[C@@H](C(=O)N2CCOCC2)N(C)C(=O)[C@H](C2CCCC2)N(C)C(=O)C2(CCCC2)NC(=O)[C@@H]2CCCN2C(=O)[C@H](CCc2ccc(C(F)(F)F)c(Cl)c2)NC(=O)CN(C)C(=O)[C@H](Cc2ccc(F)cc2)N2CCCCC[C@@H](C2=O)N(C)C(=O)CN(C)C1=O [PP0960], the pKd [1] was 9.43, the “NRAS/KRAS (ratio of KD value for NRAS to KD value for KRAS)” value [2] was “B (a compound having 3 or more and less than 10 is denoted as B)” and the “HRAS/KRAS (ratio of KD value for HRAS to KD value for KRAS)” value [3] was “B (a compound having 3 or more and less than 10 is denoted as B)”.

For CC[C@H](C)[C@@H]1NC(=O)[C@H](CC(C)C)N(C)C(=O)C[C@@H](C(=O)N2CCOCC2)N(C)C(=O)[C@H](C2CCCC2)N(C)C(=O)C2(CCCC2)NC(=O)[C@@H]2CC(F)(F)CN2C(=O)[C@H](CCc2ccc(C(F)(F)F)c(Cl)c2)NC(=O)CN(C)C(=O)[C@H](Cc2ccc(F)cc2)N2CCCCC[C@@H](C2=O)N(C)C(=O)CN(C)C1=O [PP0966], the pKd [1] was 9.64, the “NRAS/KRAS (ratio of KD value for NRAS to KD value for KRAS)” value [2] was “B (a compound having 3 or more and less than 10 is denoted as B)” and the “HRAS/KRAS (ratio of KD value for HRAS to KD value for KRAS)” value [3] was “B (a compound having 3 or more and less than 10 is denoted as B)”.
